Assay results as given in paper PMC6930638, “The Masked Polar Group Incorporation (MPGI) Strategy in Drug Design: Effects of Nitrogen Substitutions on Combretastatin and Isocombretastatin Tubulin Inhibitors” (Molecules, 2019).

Assays:
[1] = system: HT-29 colon adenocarcinoma; experiment: MTT cell antiproliferative assay, HT-29 (without or with verapamil); format: cell-based, human; conditions: Homo sapiens, HT-29; MTT, 72 h
[2] = system: HeLa cervix epithelioid carcinoma; experiment: MTT cell antiproliferative assay, HeLa; format: cell-based; conditions: Homo sapiens, 72 h
[3] = system: MCF-7 breast adenocarcinoma; experiment: MTT cell antiproliferative assay, MCF-7; format: cell-based; conditions: Homo sapiens, MCF7, 72 h
[4] = system: Bovine brain microtubule protein (MTP); experiment: Tubulin polymerization inhibition assay (turbidimetry); format: biochemical; conditions: 1.5 mg/mL MTP; IC50 calculated only if more than 50% inhibition at 20 µM; read-out: TPI IC50

IC50 [1] | IC50 [2] | IC50 [3] | IC50 [4] | SMILES
460 nM | 180 nM | 320 nM | > 20000 nM | COc1cc(C(=O)c2cccc(N(C)C)c2)cc(OC)c1OC [Compound 1f, (3-(Dimethylamino)phenyl)(3,4,5-trimethoxyphenyl)methanone]
71 nM | 18 nM | 17 nM | 9100 nM | COc1cc(C(=O)c2ccnc(N3CCCC3)c2)cc(OC)c1OC [Compound 1h, (2-(Pyrrolidin-1-yl)pyridin-4-yl)(3,4,5-trimethoxyphenyl)methanone]
277 nM | 150 nM | 81 nM | 35900 nM | C=C(c1ccc(N(C)C)nc1)c1cc(OC)c(OC)c(OC)c1 [Compound 3b, N,N-Dimethyl-5-(1-(3,4,5-trimethoxyphenyl)vinyl)pyridin-2-amine]
78 nM | 57 nM | 63 nM | 5100 nM | COc1cc(C=Cc2ccc(N(C)C)nc2)cc(OC)c1OC [Compound 8b, N,N-dimethyl-5-(3,4,5-trimethoxystyryl)pyridin-2-amine]
